The numbers were not newly measured in US5086043A, “Production of Saponins of Lichi” (priority 1990, dated 1992), which cites them from elsewhere.

Structures are written as SMILES.

Data set [1] concerns carrageenin-induced swelling. As to conditions: rats; established in the prior art.
For a further data set, the system named is capillary permeability. As to conditions: mice; established in the prior art.

Turning to `CC1(C)CC[C@]2(C(=O)O)CC[C@]3(C)C(=CC[C@@H]4[C@@]5(C)CC[C@H](O)C(C)(C)[C@@H]5CC[C@]43C)[C@@H]2C1` [oleanolic acid, Oleanolic acid], the carrageenin-induced swelling entry in data set [1] is listed as “inhibited carrageenin-induced swelling in rats”. For the same compound, the capillary permeability result in the data set on capillary permeability is “inhibited capillary permeability in mice”.
